Data published in ChEMBL document CHEMBL3407365, “Pachymodulin, a new functional formyl peptide receptor 2 peptidic ligand isolated from frog skin has Janus-like immunomodulatory capacities” (J Med Chem, 2015).
The source made the active and inactive calls. The rule behind the calls is not given here.

Assays:
Neutrophil [1] = assay: Induction of ERK1/2-mediated directional migration in human neutrophils assessed as fluorescence of calcein at 10 uM after 45 mins by chemotaxis assay in presence of PD98059 MEK1/2 inhibitor; format: functional, cell-based
Mus musculus [2] = assay: Induction of leukocyte recruitment in C57BL/6 mouse assessed as increase in number of macrophages in blood at 40 ug, ip tid 4 hr before pretreated with 3% thioglycollate relative to NaCl treated control; format: functional, organism-based
Neutrophil [3] = assay: Induction of ERK1/2-mediated directional migration in mouse neutrophils assessed as fluorescence of calcein at 10 uM after 45 mins by chemotaxis assay; format: functional, cell-based
Monocyte [4] = assay: Induction of ERK1/2-mediated directional migration in human monocytes assessed as fluorescence of calcein at 10 uM after 45 mins by chemotaxis assay; format: functional, cell-based
HEK293 [5] = assay: Induction of HEK cell migration at 10 uM; format: functional, cell-based; conditions: Homo sapiens
Neutrophil [6] = assay: Induction of ERK1/2-mediated directional migration in human neutrophils assessed as fluorescence of calcein at 10 uM after 45 mins by chemotaxis assay in presence of pertussis toxin; format: functional, cell-based
Mus musculus [7] = assay: Induction of leukocyte recruitment in C57BL/6 mouse assessed as increase in number of monocytes in peritoneal cavity at 40 ug, ip tid 4 hr before pretreated with 3% thioglycollate relative to NaCl treated control; format: functional, organism-based
Neutrophil [8] = assay: Induction of ERK1/2-mediated directional migration in mouse neutrophils assessed as fluorescence of calcein at 10 uM after 45 mins by chemotaxis assay in presence of natural compound; format: functional, cell-based
Neutrophil [9] = assay: Induction of ERK1/2-mediated directional migration in human neutrophils assessed as fluorescence of calcein at 10 uM after 45 mins by chemotaxis assay; format: functional, cell-based
[10] = target: T1, N-formyl peptide receptor 2 (Homo sapiens) (UniProt P25090); assay: Induction of human FPR2 receptor-expressed HEK cell migration at 10 uM; conditions: HEK293
T1 sequence (whole entry): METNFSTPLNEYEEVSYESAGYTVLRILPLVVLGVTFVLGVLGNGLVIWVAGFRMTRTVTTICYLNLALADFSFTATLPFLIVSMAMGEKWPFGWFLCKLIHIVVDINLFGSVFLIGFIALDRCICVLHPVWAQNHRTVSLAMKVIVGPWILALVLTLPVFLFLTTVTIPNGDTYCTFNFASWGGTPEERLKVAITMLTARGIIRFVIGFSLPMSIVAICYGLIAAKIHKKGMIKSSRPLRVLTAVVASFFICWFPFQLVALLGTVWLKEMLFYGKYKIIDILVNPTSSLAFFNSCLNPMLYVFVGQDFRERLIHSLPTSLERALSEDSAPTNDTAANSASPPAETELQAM

T-cell [11] = assay: Induction of ERK1/2-mediated directional migration in human T cell assessed as fluorescence of calcein at 10 uM after 45 mins by chemotaxis assay in presence of natural compound; format: functional, cell-based
[12] = target: T1, N-formyl peptide receptor 2 (Homo sapiens); assay: Induction of calcium release in human FPR2 receptor-expressed HEK cell assessed as calcium release through Cav1.2 channel at 10 uM by cytosolic-free calcium assay in presence of 30 uM ATP; format: functional, cell-based; conditions: HEK293
Neutrophil [13] = assay: Induction of migration in human neutrophils preincubated at 10 uM after 45 mins by chemotaxis assay in presence of 0.1 uM fMLP; format: functional, cell-based
Mus musculus [14] = assay: Induction of leukocyte recruitment in C57BL/6 mouse assessed as increase in number of monocytes in peritoneal cavity at 40 ug, ip tid relative to NaCl treated control; format: functional, organism-based
Staphylococcus aureus = assay: Antibacterial activity against Staphylococcus aureus ATCC 25923; format: functional
Neutrophil [15] = assay: Induction of migration in human neutrophils at 10 uM after 45 mins by chemotaxis assay in presence of preincubation of 10 uM fMLP; format: functional, cell-based
Escherichia coli [16] = assay: Antibacterial activity against Escherichia coli ATCC 11775; format: functional
T-cell [17] = assay: Induction of ERK1/2-mediated directional migration in human T cell assessed as fluorescence of calcein at 10 uM after 45 mins by chemotaxis assay; format: functional, cell-based
Mus musculus [18] = assay: Induction of leukocyte recruitment in C57BL/6 mouse assessed as increase in number of neutrophils in blood at 40 ug, ip tid relative to NaCl treated control; format: functional, organism-based
Mus musculus [19] = assay: Induction of leukocyte recruitment in C57BL/6 mouse assessed as increase in number of neutrophils in peritoneal cavity at 40 ug, ip tid relative to NaCl treated control; format: functional, organism-based
[20] = target: T2, Formyl peptide receptor-related sequence 1 (Mus musculus) (UniProt O08790); assay: Induction of mouse FPR2 receptor-expressed HEK cell migration at 10 uM; conditions: HEK293
T2 sequence (whole entry): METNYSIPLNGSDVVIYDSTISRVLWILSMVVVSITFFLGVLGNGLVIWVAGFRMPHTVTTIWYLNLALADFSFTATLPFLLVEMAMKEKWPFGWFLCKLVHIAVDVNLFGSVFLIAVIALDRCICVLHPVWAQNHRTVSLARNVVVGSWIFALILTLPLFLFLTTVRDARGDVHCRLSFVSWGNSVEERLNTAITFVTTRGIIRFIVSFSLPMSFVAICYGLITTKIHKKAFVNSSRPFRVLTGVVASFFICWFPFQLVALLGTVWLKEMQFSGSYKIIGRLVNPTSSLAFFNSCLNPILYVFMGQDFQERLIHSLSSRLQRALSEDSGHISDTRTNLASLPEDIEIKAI

Mus musculus [21] = assay: Induction of leukocyte recruitment in C57BL/6 mouse assessed as increase in number of monocytes in blood at 40 ug, ip tid relative to NaCl treated control; format: functional, organism-based
Neutrophil [22] = assay: Induction of migration in human neutrophils at 10 uM after 45 mins by chemotaxis assay in presence of preincubation of 0.1 uM fMLP; format: functional, cell-based
[23] = target: T1, N-formyl peptide receptor 2 (Homo sapiens); assay: Binding affinity to human FPR2 receptor expressed in HEK cells assessed as heat release at 155 nmol by isothermal titration calorimetry; conditions: HEK293
Neutrophil [24] = assay: Induction of ERK1/2-mediated directional migration in human neutrophils assessed as fluorescence of calcein at 10 uM after 45 mins by chemotaxis assay in presence of natural compound; format: functional, cell-based
Mus musculus [25] = assay: Induction of leukocyte recruitment in C57BL/6 mouse assessed as increase in number of macrophages in peritoneal cavity at 40 ug, ip tid 4 hr before pretreated with 3% thioglycollate relative to NaCl treated control; format: functional, organism-based
Neutrophil [26] = assay: Induction of ERK1/2-mediated directional migration in human neutrophils assessed as enzyme phosphorylation at 10 uM by chemotaxis assay; format: functional, cell-based; conditions: TDE = time-dependent effect
[27] = target: T1, N-formyl peptide receptor 2 (Homo sapiens); assay: Induction of calcium release in human FPR2 receptor-expressed HEK cell at 10 uM measured after second challenge by cytosolic-free calcium assay; format: functional, cell-based; conditions: HEK293
Monocyte [28] = assay: Induction of ERK1/2-mediated directional migration in human monocytes assessed as fluorescence of calcein at 10 uM after 45 mins by chemotaxis assay in presence of natural compound; format: functional, cell-based
Monocyte [29] = assay: Induction of ERK1/2-mediated directional migration in mouse monocytes assessed as fluorescence of calcein at 10 uM after 45 mins by chemotaxis assay; format: functional, cell-based
Escherichia coli [30] = assay: Induction of membrane disruption in Escherichia coli assessed as bacterial leakage by measuring Gal-ONp hydrolysis; format: organism-based
[31] = Hemolytic activity in fresh rat erythrocytes assessed as optical density after 60 mins; format: ADME, cell-based; conditions: erythrocyte, 1 h
Mus musculus [32] = assay: Induction of leukocyte recruitment in C57BL/6 mouse assessed as increase in number of neutrophils in blood at 40 ug, ip tid 4 hr before pretreated with 3% thioglycollate relative to NaCl treated control; format: functional, organism-based
Monocyte [33] = assay: Induction of ERK1/2-mediated directional migration in mouse monocytes assessed as fluorescence of calcein at 10 uM after 45 mins by chemotaxis assay in presence of natural compound; format: functional, cell-based
[34] = target: T3, Formyl peptide receptor-related sequence 1 (Mus musculus, UniProt O08790); assay: (§1) Induction of calcium release in mouse FPR2 receptor-expressed HEK cell by cytosolic-free calcium assay; format: functional, HEK293
T3 sequence (O08790 whole entry): T2 sequence (whole entry)

[35] = target: T2, Formyl peptide receptor-related sequence 1 (Mus musculus); assay: as §1; format: functional; conditions: HEK293
HEK293 [36] = assay: Induction of calcium release in HEK cell at 10 uM by cytosolic-free calcium assay; format: functional, cell-based; conditions: Homo sapiens
Neutrophil [37] = assay: Induction of migration in human neutrophils preincubated at 10 uM after 45 mins by chemotaxis assay in presence of 10 uM fMLP; format: functional, cell-based
Mus musculus [38] = assay: Induction of leukocyte recruitment in C57BL/6 mouse assessed as increase in number of neutrophils in peritoneal cavity at 40 ug, ip tid 4 hr before pretreated with 3% thioglycollate relative to NaCl treated control; format: functional, organism-based
[39] = target: T4, N-formyl peptide receptor 2 (Homo sapiens, UniProt P25090); assay: (§2) Induction of calcium release in human FPR2 receptor-expressed HEK cell by cytosolic-free calcium assay; format: functional, cell-based, HEK293
T4 sequence (P25090 whole entry): T1 sequence (whole entry)

[40] = target: T1, N-formyl peptide receptor 2 (Homo sapiens); assay: as §2; format: functional, cell-based; conditions: HEK293
Neutrophil [41] = assay: Induction of ERK1/2-mediated directional migration in human neutrophils assessed as fluorescence of calcein at 10 uM after 45 mins by chemotaxis assay in presence of SB202190 MAPK inhibitor; format: functional, cell-based
Mus musculus [42] = assay: Induction of leukocyte recruitment in C57BL/6 mouse assessed as increase in number of monocytes in blood at 40 ug, ip tid 4 hr before pretreated with 3% thioglycollate relative to NaCl treated control; format: functional, organism-based
Neutrophil [43] = assay: Induction of […]-induced migration in human neutrophils preincubated at 10 uM after 45 mins by chemotaxis assay; format: functional, cell-based

Which Activity (Neutrophil [1]) does the source give for H-SSLSKL-OH here?
The Activity was “inactive”.

What about the Activity (Mus musculus [2]) of the same compound?
Its Activity is “inactive”.

What about the Activity (Neutrophil [3]) of the same compound?
The Activity was “Active”.

What about the Activity (Monocyte [4]) of the same compound?
The Activity was “Active”.

What about the Activity (HEK293 [5]) of the same compound?
Its Activity is “inactive”.

What about the Activity (Neutrophil [6]) of the same compound?
Its Activity is “inactive”.

And the Activity (Mus musculus [7])?
Its Activity is “inactive”.

What about the Activity (Neutrophil [8]) of the same compound?
Its Activity is “inactive”.

And the Activity (Neutrophil [9])?
Its Activity is “Active”.

And the Activity [10]?
The Activity was “Active”.

And the Activity (T-cell [11])?
Its Activity is “inactive”.

And the Activity [12]?
The Activity was “Active”.

What about the Activity (Neutrophil [13]) of the same compound?
The Activity was “Active”.

What about the Activity (Mus musculus [14]) of the same compound?
Its Activity is “Active”.

What about the MIC (Staphylococcus aureus) of the same compound?
Its MIC is greater than 100 µM.

And the Activity (Neutrophil [15])?
The Activity was “Active”.

And the MIC (Escherichia coli [16])?
Its MIC is greater than 100 µM.

And the Activity (T-cell [17])?
The Activity was “Active”.

And the Activity (Mus musculus [18])?
The Activity was “Active”.

And the Activity (Mus musculus [19])?
Its Activity is “Active”.

What about the Activity [20] of the same compound?
Its Activity is “Active”.

And the Activity (Mus musculus [21])?
Its Activity is “Active”.

What about the Activity (Neutrophil [22]) of the same compound?
Its Activity is “inactive”.

What about the Activity [23] of the same compound?
The Activity was “Active”.

What about the Activity (Neutrophil [24]) of the same compound?
Its Activity is “inactive”.

What about the Activity (Mus musculus [25]) of the same compound?
Its Activity is “inactive”.

What about the Activity (Neutrophil [26]) of the same compound?
Its Activity is “tde”.

What about the Activity [27] of the same compound?
Its Activity is “inactive”.

What about the Activity (Monocyte [28]) of the same compound?
The Activity was “inactive”.

And the Activity (Monocyte [29])?
Its Activity is “Active”.

What about the Activity (Escherichia coli [30]) of the same compound?
Its Activity is “Non-toxic”.

What about the Activity [31] of the same compound?
The Activity was “Non-toxic”.

What about the Activity (Mus musculus [32]) of the same compound?
Its Activity is “inactive”.

And the Activity (Monocyte [33])?
Its Activity is “inactive”.

What about the EC50 [34] of the same compound?
The EC50 was 9 µM.

What about the Activity [35] of the same compound?
The Activity was “Dose-dependent effect”.

And the Activity (HEK293 [36])?
The Activity was “inactive”.

And the Activity (Neutrophil [37])?
Its Activity is “Active”.

What about the Activity (Mus musculus [38]) of the same compound?
The Activity was “inactive”.

What about the EC50 [39] of the same compound?
The EC50 was 7.5 µM.

What about the Activity [40] of the same compound?
Its Activity is “Dose-dependent effect”.

What about the Activity (Neutrophil [41]) of the same compound?
Its Activity is “inactive”.

What about the Activity (Mus musculus [42]) of the same compound?
Its Activity is “inactive”.

With `CSCC[C@H](NC=O)C(=O)N[C@@H](CC(C)C)C(=O)N[C@@H](Cc1ccccc1)C(=O)O` as the compound, how does the Activity [12] read?
The Activity was “Active”.

And the Activity (Neutrophil [43])?
Its Activity is “inactive”.

And the Activity [27]?
Its Activity is “inactive”.
